Tests used:
B-Raf V600E = B-Raf V600E (Homo sapiens, UniProt P15056, V600E); experiment: B-Raf V600E kinase activity assay (AlphaScreen, biotin-MEK1 substrate); settings: 100 μM ATP, 100 nM biotin-MEK1, 45 minutes at room temperature, read-out: Biochemical activity (IC50 μM) V600E
In short: (§1)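 Each Raf enzyme (0.1 ng) phosphorylates 100 nM biotin-MEK1 in pH 7.0 HEPES with Mg2+/Mn2+, 100 μM ATP final, 45 min at room temperature. Phospho-MEK1/2 antibody with AlphaScreen beads is read after 3 h. IC50 comes from an 8-point dilution series.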

CYP2C9 = CYP2C9 (Homo sapiens, UniProt P11712); experiment: CYP2C9 inhibition (fluorescent substrate MFC); assay type: in vitro ADME; settings: read-out: Cyp IC50 (μM) 2C9
Procedure: (§2) CYP (Cytochrome P450) enzymes are the major drug metabolizing enzymes present in the liver. The inhibition of CYP enzyme activity (IC50) for each of CYP1A2, CYP2C19, CYP2C9, CYP2D6, CYP3A4(BFC) and CYP3A4(BQ) is determined for compounds, where inhibition of metabolism of a known substrate leads to a decrease in the fluorescence of the metabolized product. The fluorescence of the product is monitored as a function of compound concentration. Compounds are dissolved in dimethyl sulfoxide to a concentration of 100 mM. These are diluted […], into 82 μL of acetonitrile. An 11 μL aliquot of this solution is then added to 204 μL of cofactor mix (1.3% NADPH Regeneration system Solution A, 1.04% NADPH Regeneration system Solution B from BD Biosciences, 5% acetonitrile and 0.05% dimethyl sulfoxide). These are then serially diluted 1:1 (160 μL to 160 μL co-factor mix) for a total of 10 points. A 10 μL aliquot of this final mixture is dispensed into 384 well assay plates and incubated for 10 minutes at 37° C. Enzyme and substrate mix (10 μL; 0.5 pmol CYP1A2/5 μM CEC; 1.0 pmol CYP2C9/75 μM MFC; 0.5 pmol CYP2C19/25 μM CEC; 1.5 pmol CYP2D6/1.5 μM AMMC; 1.0 pmol CYP3A4/50 μM BFC; or 1.0 pmol CYP3A4/40 μM BQ) is added to these assay plates. Assay plates are incubated at 37° C. (CYP1A2-15 min; CYP2C9-45 min; CYP2C19, 2D6 and 3A4-30 min) and read in a Tecan Safire 2 plate reader (CYP1A2, 2C19 and 3A4 409 ex/460 em; CYP2C9 and 2D6 409 ex/530 em). The signal versus compound concentration is used to determine the IC50. The enzymes and substrates for this assay are obtained from BD Biosciences.

CYP2C19 = CYP2C19 (Homo sapiens, UniProt P33261); experiment: CYP2C19 inhibition (fluorescent substrate CEC); assay type: in vitro ADME; settings: read-out: Cyp IC50 (μM) 2C19
Procedure: as §2

CYP1A2 = target: T1, CYP1A2 (Homo sapiens, UniProt P05177); experiment: CYP1A2 inhibition (fluorescent substrate CEC); assay type: in vitro ADME; settings: read-out: Cyp IC50 (μM) 1A2
T1 sequence (P05177 1-516): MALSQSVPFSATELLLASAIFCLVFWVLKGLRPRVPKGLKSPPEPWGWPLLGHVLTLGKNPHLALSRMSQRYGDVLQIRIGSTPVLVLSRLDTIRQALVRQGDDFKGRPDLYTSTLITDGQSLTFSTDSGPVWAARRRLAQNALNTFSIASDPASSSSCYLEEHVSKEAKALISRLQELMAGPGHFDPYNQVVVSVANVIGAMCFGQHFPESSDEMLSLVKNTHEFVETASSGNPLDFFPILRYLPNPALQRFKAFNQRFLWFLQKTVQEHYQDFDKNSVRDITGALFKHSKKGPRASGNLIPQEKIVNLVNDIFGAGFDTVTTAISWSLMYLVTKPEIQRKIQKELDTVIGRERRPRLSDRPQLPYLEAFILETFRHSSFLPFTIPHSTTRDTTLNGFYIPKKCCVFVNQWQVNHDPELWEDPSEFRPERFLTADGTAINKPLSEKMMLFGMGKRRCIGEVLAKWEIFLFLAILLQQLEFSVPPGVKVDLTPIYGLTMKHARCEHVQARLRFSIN
Procedure: as §2

B-Raf = B-Raf (Homo sapiens, UniProt P15056); experiment: B-Raf kinase activity assay (AlphaScreen, biotin-MEK1 substrate); settings: 100 μM ATP, 100 nM biotin-MEK1, 45 minutes at room temperature; read-out: Biochemical activity (IC50 μM) B-Raf
In short: as §1

c-Raf-1 = c-Raf-1 (Homo sapiens, UniProt P04049); experiment: c-Raf-1 kinase activity assay (AlphaScreen, biotin-MEK1 substrate); settings: 100 μM ATP, 100 nM biotin-MEK1, 45 minutes at room temperature; read-out: Biochemical activity (IC50 μM) c-Raf-1
In short: as §1

CYP2D6 = CYP2D6 (Homo sapiens, UniProt P10635); experiment: CYP2D6 inhibition (fluorescent substrate AMMC); assay type: in vitro ADME; settings: read-out: Cyp IC50 (μM) 2D6
Procedure: as §2

Sequence of CYP2D6 (P10635 whole entry): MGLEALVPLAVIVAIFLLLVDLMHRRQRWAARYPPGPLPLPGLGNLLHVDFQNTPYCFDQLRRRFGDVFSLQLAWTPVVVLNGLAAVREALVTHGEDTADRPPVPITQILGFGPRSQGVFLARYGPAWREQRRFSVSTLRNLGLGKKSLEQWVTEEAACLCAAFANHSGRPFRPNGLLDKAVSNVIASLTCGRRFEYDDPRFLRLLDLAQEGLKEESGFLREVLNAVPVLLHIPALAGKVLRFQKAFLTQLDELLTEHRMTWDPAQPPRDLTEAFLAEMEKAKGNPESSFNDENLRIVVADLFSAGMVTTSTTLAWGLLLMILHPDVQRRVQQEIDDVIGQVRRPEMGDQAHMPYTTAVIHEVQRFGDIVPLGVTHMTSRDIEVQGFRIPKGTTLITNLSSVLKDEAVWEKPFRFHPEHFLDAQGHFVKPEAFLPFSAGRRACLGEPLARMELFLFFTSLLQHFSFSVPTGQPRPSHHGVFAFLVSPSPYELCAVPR
Sequence of CYP2C9 (P11712 whole entry): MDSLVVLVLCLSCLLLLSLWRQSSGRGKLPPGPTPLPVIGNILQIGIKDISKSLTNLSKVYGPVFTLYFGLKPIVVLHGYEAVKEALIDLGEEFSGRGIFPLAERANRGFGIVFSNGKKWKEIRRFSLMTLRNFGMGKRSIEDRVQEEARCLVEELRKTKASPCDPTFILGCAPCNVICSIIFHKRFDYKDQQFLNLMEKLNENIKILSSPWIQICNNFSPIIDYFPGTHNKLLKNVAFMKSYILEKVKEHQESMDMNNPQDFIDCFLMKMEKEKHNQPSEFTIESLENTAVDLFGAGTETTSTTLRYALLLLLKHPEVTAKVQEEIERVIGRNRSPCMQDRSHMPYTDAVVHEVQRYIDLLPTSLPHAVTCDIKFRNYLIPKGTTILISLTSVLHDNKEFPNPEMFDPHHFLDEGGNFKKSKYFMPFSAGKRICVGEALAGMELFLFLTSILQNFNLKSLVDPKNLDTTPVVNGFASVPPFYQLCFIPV
Sequence of c-Raf-1 (P04049 whole entry Y340D/Y341D, form open): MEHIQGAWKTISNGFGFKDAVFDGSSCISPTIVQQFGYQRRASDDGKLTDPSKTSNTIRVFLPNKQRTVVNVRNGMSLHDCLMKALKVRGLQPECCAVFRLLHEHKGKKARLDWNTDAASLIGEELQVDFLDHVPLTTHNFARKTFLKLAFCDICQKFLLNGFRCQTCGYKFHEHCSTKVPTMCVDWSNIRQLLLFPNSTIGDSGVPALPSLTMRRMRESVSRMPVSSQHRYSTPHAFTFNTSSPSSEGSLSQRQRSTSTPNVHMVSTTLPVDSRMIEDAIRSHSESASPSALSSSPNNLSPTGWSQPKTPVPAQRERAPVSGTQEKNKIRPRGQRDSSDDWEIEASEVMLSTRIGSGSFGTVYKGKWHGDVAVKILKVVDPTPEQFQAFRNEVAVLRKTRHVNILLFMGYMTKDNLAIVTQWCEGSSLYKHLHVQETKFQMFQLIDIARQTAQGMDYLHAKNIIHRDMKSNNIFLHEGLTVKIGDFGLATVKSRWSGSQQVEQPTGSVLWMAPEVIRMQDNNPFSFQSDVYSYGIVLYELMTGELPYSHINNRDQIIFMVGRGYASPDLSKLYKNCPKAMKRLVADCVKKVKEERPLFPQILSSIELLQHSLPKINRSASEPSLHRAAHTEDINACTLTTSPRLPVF
Sequence of B-Raf V600E (P15056 whole entry V600E): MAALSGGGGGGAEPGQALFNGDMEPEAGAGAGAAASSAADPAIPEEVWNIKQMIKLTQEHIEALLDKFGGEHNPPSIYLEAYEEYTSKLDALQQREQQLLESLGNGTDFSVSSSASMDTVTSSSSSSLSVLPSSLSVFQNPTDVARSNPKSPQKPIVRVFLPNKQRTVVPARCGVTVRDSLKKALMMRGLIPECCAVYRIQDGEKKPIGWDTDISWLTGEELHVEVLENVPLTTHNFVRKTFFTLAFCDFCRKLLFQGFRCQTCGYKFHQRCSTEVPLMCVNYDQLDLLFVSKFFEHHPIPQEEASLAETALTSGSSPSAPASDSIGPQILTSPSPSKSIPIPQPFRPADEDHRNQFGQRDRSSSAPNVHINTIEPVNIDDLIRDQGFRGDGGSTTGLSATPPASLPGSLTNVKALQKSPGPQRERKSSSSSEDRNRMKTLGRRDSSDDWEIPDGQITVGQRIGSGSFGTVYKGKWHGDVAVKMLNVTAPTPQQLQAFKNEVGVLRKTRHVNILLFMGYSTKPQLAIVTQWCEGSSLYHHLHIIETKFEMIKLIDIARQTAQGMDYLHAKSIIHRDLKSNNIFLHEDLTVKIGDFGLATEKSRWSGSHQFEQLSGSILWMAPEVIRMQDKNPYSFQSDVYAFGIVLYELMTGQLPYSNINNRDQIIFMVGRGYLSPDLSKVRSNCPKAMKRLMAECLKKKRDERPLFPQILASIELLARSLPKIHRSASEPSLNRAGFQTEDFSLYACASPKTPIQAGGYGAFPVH
Sequence of B-Raf (P15056 whole entry): as the sequence (P15056 whole entry V600E) above, with E600V counted along it
Sequence of CYP2C19 (P33261 whole entry): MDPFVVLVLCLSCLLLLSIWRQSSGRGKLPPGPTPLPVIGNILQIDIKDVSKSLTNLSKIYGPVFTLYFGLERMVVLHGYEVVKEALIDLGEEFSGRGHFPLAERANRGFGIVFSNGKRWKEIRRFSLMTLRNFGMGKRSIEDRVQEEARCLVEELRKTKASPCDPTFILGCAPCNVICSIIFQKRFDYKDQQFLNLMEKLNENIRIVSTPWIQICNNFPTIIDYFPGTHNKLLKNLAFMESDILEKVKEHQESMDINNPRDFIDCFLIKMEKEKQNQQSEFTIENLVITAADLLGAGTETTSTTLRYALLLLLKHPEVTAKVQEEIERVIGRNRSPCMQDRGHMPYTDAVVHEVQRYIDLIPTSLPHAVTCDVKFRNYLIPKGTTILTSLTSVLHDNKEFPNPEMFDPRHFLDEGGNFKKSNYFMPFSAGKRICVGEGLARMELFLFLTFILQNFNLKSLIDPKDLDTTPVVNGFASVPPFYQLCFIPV

| Compound | IC50 (B-Raf V600E) [µM] | IC50 (CYP2C9) [µM] | IC50 (CYP2C19) [µM] | IC50 (CYP1A2) [µM] | IC50 (B-Raf) [µM] | IC50 (c-Raf-1) [µM] | IC50 (CYP2D6) [µM] |
| --- | --- | --- | --- | --- | --- | --- | --- |
| CCCS(=O)(=O)Nc1ccc(F)c(C(=O)c2c[nH]c3ncc(-c4ccc5[nH]ncc5c4)cc23)c1F [P-0001, propane-1-sulfonic acid {2,4-difluoro-3-[5-(1H-indazol-5-yl)-1H-pyrrolo[2,3-b]pyridine-3-carbonyl]-phenyl}-amide] | < 0.1 | < 5 | < 5 | > 10 | < 0.1 | < 0.1 | > 10 |
| O=C(c1c(F)ccc(NS(=O)(=O)c2cc(F)ccc2F)c1F)c1c[nH]c2ncc(-c3ccc4[nH]ncc4c3)cc12 [P-0002, N-{2,4-Difluoro-3-[5-(1H-indazol-5-yl)-1H-pyrrolo[2,3-b]pyridine-3-carbonyl]-phenyl}-2,5-difluoro-benzenesulfonamide] | < 0.1 | < 5 | 5 to 10 | > 10 | < 0.1 | < 0.1 | > 10 |
| CNC(=O)n1ncc2cc(-c3cnc4[nH]cc(C(=O)c5c(F)ccc(NS(=O)(=O)c6cc(F)ccc6F)c5F)c4c3)ccc21 [P-0003, 5-{3-[3-(2,5-Difluoro-benzenesulfonylamino)-2,6-difluoro-benzoyl]-1H-pyrrolo[2,3-b]pyridin-5-yl}-indazole-1-carboxylic acid methylamide] | < 0.1 | < 5 | < 5 | > 10 | < 0.1 | < 0.1 | > 10 |
| CC(=O)n1cc(C(=O)c2c(F)ccc(NS(=O)(=O)c3cc(F)ccc3F)c2F)c2cc(-c3ccc4c(cnn4C(C)=O)c3)cnc21 [P-0004, N-{3-[1-Acetyl-5-(1-acetyl-1H-indazol-5-yl)-1H-pyrrolo[2,3-b]pyridine-3-carbonyl]-2,4-difluoro-phenyl}-2,5-difluoro-benzenesulfonamide] | < 0.1 | < 5 | < 5 | > 10 | < 0.1 | < 0.1 | > 10 |
| CC(=O)n1ncc2cc(-c3cnc4[nH]cc(C(=O)c5c(F)ccc(NS(=O)(=O)c6cc(F)ccc6F)c5F)c4c3)ccc21 [P-0005, N-{3-[5-(1-Acetyl-1H-indazol-5-yl)-1H-pyrrolo[2,3-b]pyridine-3-carbonyl]-2,4-difluoro-phenyl}-2,5-difluoro-benzenesulfonamide] | < 0.1 | < 5 | < 5 | > 10 | < 0.1 | < 0.1 | > 10 |
| CC(=O)N(c1ccc(F)c(C(=O)c2cn(C(C)=O)c3ncc(-c4ccc5c(cnn5C(C)=O)c4)cc23)c1F)S(=O)(=O)c1cc(F)ccc1F [P-0006, N-Acetyl-N-{3-[1-acetyl-5-(1-acetyl-1H-indazol-5-yl)-1H-pyrrolo[2,3-b]pyridine-3-carbonyl]-2,4-difluoro-phenyl}-2,5-difluoro-benzenesulfonamide] | < 0.1 | < 5 | 5 to 10 | 5 to 10 | < 0.1 | < 0.1 | > 10 |
| CCCS(=O)(=O)Nc1ccc(F)c(C(=O)c2c[nH]c3ncc(-c4ccc5c(cnn5C(C)=O)c4)cc23)c1F [P-0007, propane-1-sulfonic acid {3-[5-(1-acetyl-1H-indazol-5-yl)-1H-pyrrolo[2,3-b]pyridine-3-carbonyl]-2,4-difluoro-phenyl}-amide] | < 0.1 | < 5 | < 5 | < 5 | < 0.1 | ~0.1 | > 10 |
| CCCS(=O)(=O)Nc1ccc(F)c(C(=O)c2c[nH]c3ncc(-c4ccc5nn(C)cc5c4)cc23)c1F [P-0010, Propane-1-sulfonic acid {2,4-difluoro-3-[5-(2-methyl-2H-indazol-5-yl)-1H-pyrrolo[2,3-b]pyridine-3-carbonyl]-phenyl}-amide] | < 0.1 | > 10 | > 10 | > 10 | < 0.1 | < 0.1 | > 10 |
| CCCS(=O)(=O)Nc1ccc(F)c(C(=O)c2c[nH]c3ncc(-c4ccc5cn(C)nc5c4)cc23)c1F [P-0011, Propane-1-sulfonic acid {2,4-difluoro-3-[5-(2-methyl-2H-indazol-6-yl)-1H-pyrrolo[2,3-b]pyridine-3-carbonyl]-phenyl}-amide] | < 0.1 | 5 to 10 | > 10 | < 5 | < 0.1 | < 0.1 | > 10 |
| CCCS(=O)(=O)Nc1ccc(F)c(C(=O)c2c[nH]c3ncc(-c4ccc5[nH]ccc5c4)cc23)c1F [P-0012, Propane-1-sulfonic acid {2,4-difluoro-3-[5-(1H-indol-5-yl)-1H-pyrrolo[2,3-b]pyridine-3-carbonyl]-phenyl}-amide] | < 0.1 | 5 to 10 | < 5 | > 10 | < 0.1 | < 0.1 | > 10 |
| CCCS(=O)(=O)Nc1ccc(F)c(C(=O)c2c[nH]c3ncc(-c4cccc5nn(C)cc45)cc23)c1F [P-0015, Propane-1-sulfonic acid {2,4-difluoro-3-[5-(2-methyl-2H-indazol-4-yl)-1H-pyrrolo[2,3-b]pyridine-3-carbonyl]-phenyl}-amide] | < 0.1 | 5 to 10 | > 10 | > 10 | < 0.1 | < 0.1 | > 10 |
| CCCS(=O)(=O)Nc1ccc(F)c(C(=O)c2c[nH]c3ncc(-c4ccc5c(cnn5S(C)(=O)=O)c4)cc23)c1F [P-0016, propane-1-sulfonic acid {2,4-difluoro-3-[5-(1-methanesulfonyl-1H-indazol-5-yl)-1H-pyrrolo[2,3-b]pyridine-3-carbonyl]-phenyl}-amide] | < 0.1 | > 10 | > 10 | > 10 | < 0.1 | < 0.1 | > 10 |
| CCCS(=O)(=O)Nc1ccc(F)c(C(=O)c2c[nH]c3ncc(-c4ccc5ncsc5c4)cc23)c1F [P-0020, Propane-1-sulfonic acid [3-(5-benzothiazol-6-yl-1H-pyrrolo[2,3-b]pyridine-3-carbonyl)-2,4-difluoro-phenyl]-amide] | < 0.1 | > 10 | 5 to 10 | > 10 | < 0.1 | < 0.1 | > 10 |
| CCCS(=O)(=O)Nc1ccc(F)c(C(=O)c2c[nH]c3ncc(-c4ccc5[nH]cc(C)c5c4)cc23)c1F [P-0023, Propane-1-sulfonic acid {2,4-difluoro-3-[5-(3-methyl-1H-indol-5-yl)-1H-pyrrolo[2,3-b]pyridine-3-carbonyl]-phenyl}-amide] | < 0.1 | > 10 | < 5 | > 10 | < 0.1 | < 0.1 | > 10 |
